How the values were obtained:
[1] = target: Amine oxidase [flavin-containing] A (MAOA) (Homo sapiens, UniProt P21397); test: MAOA Eurofins SafetyScreen44 (BI); design: mode of action inhibitor; conditions: compound concentration 10 uM, read-out: % Ctrl
[2] = target: Activin receptor type-1-like (Homo sapiens) (UniProt P37023); test: ACVRL1 (ALK1) Invitrogen Lab (UK) kinase screen (BI); conditions: Compound concentration 1.0 uM
[3] = target: Phosphatidylinositol 4-phosphate 5-kinase type-1 alpha (Homo sapiens) (UniProt Q99755); test: PIP5K1A Invitrogen Lab (UK) kinase screen (BI); conditions: Compound concentration 1.0 uM
[4] = target: Tyrosine-protein kinase Blk (Homo sapiens) (UniProt P51451); test: BLK Invitrogen Lab (UK) kinase screen (BI); conditions: Compound concentration 1.0 uM
[5] = target: Cyclin-dependent kinase 9 (Homo sapiens) (UniProt P50750); test: CDK9CYCLIN Invitrogen Lab (UK) kinase screen (BI); conditions: Compound concentration 1.0 uM
[6] = target: Phosphatidylinositol 4-kinase alpha (Homo sapiens) (UniProt P42356); test: PI4KA Invitrogen Lab (UK) kinase screen (BI); conditions: Compound concentration 1.0 uM
[7] = target: Serine/threonine-protein kinase 4 (Homo sapiens) (UniProt Q13043); test: STK4 Invitrogen Lab (UK) kinase screen (BI); conditions: Compound concentration 1.0 uM
[8] = target: Serine/threonine-protein kinase Chk2 (Homo sapiens) (UniProt O96017); test: CHK2 DUNDEE kinase screen (BI); conditions: Compound concentration 10.0 uM
[9] = target: Dual specificity mitogen-activated protein kinase kinase 1 (Homo sapiens) (UniProt Q02750); test: MKK1 DUNDEE kinase screen (BI); conditions: Oryctolagus cuniculus; Compound concentration 10.0 uM
[10] = target: Serine/threonine-protein kinase Nek6 (Homo sapiens) (UniProt Q9HC98); test: NEK6 DUNDEE kinase screen (BI); conditions: Compound concentration 10.0 uM
[11] = target: Serine/threonine-protein kinase N2 (Homo sapiens) (UniProt Q16513); test: PRK2 DUNDEE kinase screen (BI); conditions: Compound concentration 10.0 uM
[12] = target: 5-hydroxytryptamine receptor 1B (Homo sapiens) (UniProt P28222); conditions: Compound concentration 10.0 uM
Chain of 5-hydroxytryptamine receptor 1B (Homo sapiens) (P28222 whole entry): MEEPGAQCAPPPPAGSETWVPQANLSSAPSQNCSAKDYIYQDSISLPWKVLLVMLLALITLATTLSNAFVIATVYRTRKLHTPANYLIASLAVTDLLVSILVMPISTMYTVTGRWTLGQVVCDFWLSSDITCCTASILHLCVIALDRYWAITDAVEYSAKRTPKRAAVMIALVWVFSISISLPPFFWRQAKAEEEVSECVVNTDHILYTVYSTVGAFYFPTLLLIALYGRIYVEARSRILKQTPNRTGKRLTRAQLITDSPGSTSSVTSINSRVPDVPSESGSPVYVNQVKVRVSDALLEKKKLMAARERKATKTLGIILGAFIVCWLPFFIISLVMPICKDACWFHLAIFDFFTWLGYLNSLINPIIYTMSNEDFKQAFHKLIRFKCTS

[13] = target: 5-hydroxytryptamine receptor 1D (Homo sapiens) (UniProt P28221); conditions: Compound concentration 10.0 uM
Chain of 5-hydroxytryptamine receptor 1D (Homo sapiens) (P28221 whole entry): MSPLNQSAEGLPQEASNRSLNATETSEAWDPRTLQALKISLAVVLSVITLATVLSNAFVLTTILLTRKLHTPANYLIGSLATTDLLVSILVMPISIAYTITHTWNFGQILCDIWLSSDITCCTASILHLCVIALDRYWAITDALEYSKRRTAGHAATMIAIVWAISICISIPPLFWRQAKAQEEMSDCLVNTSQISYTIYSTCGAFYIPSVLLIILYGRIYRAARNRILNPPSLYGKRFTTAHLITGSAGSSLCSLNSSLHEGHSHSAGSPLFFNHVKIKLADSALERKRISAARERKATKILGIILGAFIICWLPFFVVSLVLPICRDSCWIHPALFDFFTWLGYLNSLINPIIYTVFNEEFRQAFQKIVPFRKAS

[14] = target: Histamine H1 receptor (Homo sapiens) (UniProt P35367); conditions: Compound concentration 10.0 uM
[15] = target: Alpha-1D adrenergic receptor (Homo sapiens) (UniProt P25100); conditions: Compound concentration 10.0 uM
[16] = target: B1 bradykinin receptor (Homo sapiens) (UniProt P46663)
Chain of B1 bradykinin receptor (Homo sapiens) (P46663 whole entry): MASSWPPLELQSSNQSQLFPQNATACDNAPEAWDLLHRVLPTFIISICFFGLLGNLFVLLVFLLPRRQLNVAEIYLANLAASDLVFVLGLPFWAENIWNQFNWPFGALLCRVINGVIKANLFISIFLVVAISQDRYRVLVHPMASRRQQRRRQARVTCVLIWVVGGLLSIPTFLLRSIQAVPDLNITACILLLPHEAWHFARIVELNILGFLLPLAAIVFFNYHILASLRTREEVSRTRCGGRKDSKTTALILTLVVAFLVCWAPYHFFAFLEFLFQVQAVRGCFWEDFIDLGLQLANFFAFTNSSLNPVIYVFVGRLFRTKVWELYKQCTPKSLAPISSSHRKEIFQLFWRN

[17] = target: Calcitonin-gene-related peptide receptor, CALCRL/RAMP1 (Homo sapiens) (UniProt O60894+Q16602)
[18] = target: Endothelin-converting enzyme 1 (Homo sapiens) (UniProt P42892); conditions: Compound concentration 10.0 uM
[19] = target: Nitric oxide synthase 3 (Bos taurus) (UniProt P29473); conditions: Compound concentration 10.0 uM
Renin (Homo sapiens) = Renin (Homo sapiens) (UniProt P00797); conditions: Compound concentration 10.0 uM
[20] = target: Activin receptor type-2A (Homo sapiens) (UniProt P27037); conditions: Compound concentration 1.0 uM
Chain of Activin receptor type-2A (Homo sapiens) (P27037 whole entry): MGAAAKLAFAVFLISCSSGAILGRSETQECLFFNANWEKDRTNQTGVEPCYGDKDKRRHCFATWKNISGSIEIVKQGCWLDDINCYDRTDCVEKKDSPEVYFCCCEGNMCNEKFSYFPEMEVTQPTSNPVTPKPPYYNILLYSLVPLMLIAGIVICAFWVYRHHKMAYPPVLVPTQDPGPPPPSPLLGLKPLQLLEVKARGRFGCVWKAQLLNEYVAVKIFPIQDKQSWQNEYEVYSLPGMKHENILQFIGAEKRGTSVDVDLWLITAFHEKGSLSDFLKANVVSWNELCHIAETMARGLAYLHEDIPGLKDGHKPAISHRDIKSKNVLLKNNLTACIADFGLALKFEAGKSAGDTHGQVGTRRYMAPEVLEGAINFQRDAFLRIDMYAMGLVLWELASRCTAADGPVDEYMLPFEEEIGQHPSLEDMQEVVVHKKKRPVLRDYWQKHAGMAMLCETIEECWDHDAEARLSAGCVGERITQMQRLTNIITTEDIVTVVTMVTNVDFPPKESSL

[21] = target: Hormonally up-regulated neu tumor-associated kinase (Homo sapiens) (UniProt P57058); conditions: Compound concentration 1.0 uM
[22] = target: Kinase suppressor of Ras 2 (Homo sapiens) (UniProt Q6VAB6); conditions: Compound concentration 1.0 uM
[23] = target: MAP/microtubule affinity-regulating kinase 3 (Homo sapiens) (UniProt P27448); conditions: Compound concentration 1.0 uM
[24] = target: Phosphatidylinositol 3-kinase C2 domain-containing subunit gamma (Homo sapiens) (UniProt O75747); conditions: Compound concentration 1.0 uM
[25] = target: Phosphatidylinositol 4-phosphate 5-kinase type-1 beta (Homo sapiens) (UniProt O14986); conditions: Compound concentration 1.0 uM
[26] = target: Phosphatidylinositol 4-phosphate 5-kinase type-1 gamma (Homo sapiens) (UniProt O60331); conditions: Compound concentration 1.0 uM
[27] = target: Calcium/calmodulin-dependent protein kinase type II subunit beta (Homo sapiens) (UniProt Q13554); conditions: Compound concentration 1.0 uM
[28] = target: Cyclin-dependent kinase 5/CDK5 activator 1 (Homo sapiens) (UniProt Q00535+Q15078); conditions: Compound concentration 1.0 uM
Chain of Cyclin-dependent kinase 5/CDK5 activator 1 (Homo sapiens) (Q00535 whole entry): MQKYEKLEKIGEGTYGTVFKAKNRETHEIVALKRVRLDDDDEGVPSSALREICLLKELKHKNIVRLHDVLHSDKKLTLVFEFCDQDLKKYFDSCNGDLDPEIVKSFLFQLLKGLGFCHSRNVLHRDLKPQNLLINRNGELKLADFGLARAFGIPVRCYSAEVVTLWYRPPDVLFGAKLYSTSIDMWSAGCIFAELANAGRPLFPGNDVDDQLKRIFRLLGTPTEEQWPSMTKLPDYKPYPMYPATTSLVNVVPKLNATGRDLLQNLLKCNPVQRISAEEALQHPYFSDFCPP
Chain of Cyclin-dependent kinase 5/CDK5 activator 1 (Homo sapiens) (Q15078 99-307 partner limits assumed): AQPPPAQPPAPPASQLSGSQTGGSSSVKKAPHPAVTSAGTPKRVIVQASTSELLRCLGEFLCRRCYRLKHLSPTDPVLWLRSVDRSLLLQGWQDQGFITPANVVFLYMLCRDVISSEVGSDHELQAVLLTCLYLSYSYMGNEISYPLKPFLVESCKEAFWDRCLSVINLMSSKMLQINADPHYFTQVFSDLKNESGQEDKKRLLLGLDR

[29] = target: Death-associated protein kinase 1 (Homo sapiens) (UniProt P53355); conditions: Compound concentration 1.0 uM
[30] = target: Dual specificity tyrosine-phosphorylation-regulated kinase 1A (Homo sapiens) (UniProt Q13627); conditions: Compound concentration 1.0 uM
[31] = target: Ephrin type-A receptor 2 (Homo sapiens) (UniProt P29317)
Chain of Ephrin type-A receptor 2 (Homo sapiens) (P29317 whole entry): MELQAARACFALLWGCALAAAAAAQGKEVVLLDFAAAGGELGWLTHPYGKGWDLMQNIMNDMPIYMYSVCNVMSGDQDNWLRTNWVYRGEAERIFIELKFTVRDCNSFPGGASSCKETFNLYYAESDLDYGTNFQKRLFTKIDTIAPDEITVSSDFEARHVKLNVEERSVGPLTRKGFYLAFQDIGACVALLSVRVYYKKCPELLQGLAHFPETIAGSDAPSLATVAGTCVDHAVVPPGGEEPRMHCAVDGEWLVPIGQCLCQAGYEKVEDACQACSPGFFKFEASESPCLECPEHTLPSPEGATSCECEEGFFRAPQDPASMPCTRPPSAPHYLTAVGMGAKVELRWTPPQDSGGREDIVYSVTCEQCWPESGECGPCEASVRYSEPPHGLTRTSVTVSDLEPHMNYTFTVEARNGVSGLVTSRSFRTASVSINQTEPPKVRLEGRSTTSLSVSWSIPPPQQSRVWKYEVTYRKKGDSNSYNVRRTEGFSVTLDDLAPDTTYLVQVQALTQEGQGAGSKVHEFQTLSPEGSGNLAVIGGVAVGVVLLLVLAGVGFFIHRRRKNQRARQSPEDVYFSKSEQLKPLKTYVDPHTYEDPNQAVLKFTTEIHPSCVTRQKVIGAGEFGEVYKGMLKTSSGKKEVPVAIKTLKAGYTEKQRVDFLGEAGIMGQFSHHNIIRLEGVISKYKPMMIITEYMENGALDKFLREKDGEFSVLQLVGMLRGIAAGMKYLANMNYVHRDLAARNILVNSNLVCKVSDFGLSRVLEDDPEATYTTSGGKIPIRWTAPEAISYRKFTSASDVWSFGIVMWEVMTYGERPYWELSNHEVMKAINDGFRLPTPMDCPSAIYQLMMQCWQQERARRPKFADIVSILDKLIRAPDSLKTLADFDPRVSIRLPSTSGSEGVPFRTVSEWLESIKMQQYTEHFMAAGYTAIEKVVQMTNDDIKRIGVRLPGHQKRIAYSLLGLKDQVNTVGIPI

[32] = target: Ephrin type-B receptor 3 (Homo sapiens) (UniProt P54753); conditions: Compound concentration 1.0 uM
[33] = target: Interleukin-1 receptor-associated kinase 4 (Homo sapiens) (UniProt Q9NWZ3)
Chain of Interleukin-1 receptor-associated kinase 4 (Homo sapiens) (Q9NWZ3 whole entry, the tested form may be a part): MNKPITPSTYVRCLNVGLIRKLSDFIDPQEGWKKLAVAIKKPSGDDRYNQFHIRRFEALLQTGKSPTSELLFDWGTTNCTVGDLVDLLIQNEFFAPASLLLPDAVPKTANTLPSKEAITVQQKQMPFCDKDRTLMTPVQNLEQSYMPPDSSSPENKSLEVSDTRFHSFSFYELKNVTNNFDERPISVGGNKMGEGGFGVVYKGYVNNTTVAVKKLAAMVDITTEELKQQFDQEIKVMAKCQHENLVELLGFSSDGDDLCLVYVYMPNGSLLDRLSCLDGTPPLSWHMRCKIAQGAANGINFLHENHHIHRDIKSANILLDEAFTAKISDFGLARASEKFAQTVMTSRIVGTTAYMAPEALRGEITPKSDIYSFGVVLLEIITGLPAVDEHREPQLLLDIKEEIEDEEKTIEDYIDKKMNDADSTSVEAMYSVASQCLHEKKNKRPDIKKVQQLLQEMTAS

[34] = target: LIM domain kinase 1 (Homo sapiens) (UniProt P53667); conditions: Compound concentration 1.0 uM
[35] = target: Serine/threonine-protein kinase NLK (Homo sapiens) (UniProt Q9UBE8); conditions: Compound concentration 1.0 uM
Chain of Serine/threonine-protein kinase NLK (Homo sapiens) (Q9UBE8 whole entry): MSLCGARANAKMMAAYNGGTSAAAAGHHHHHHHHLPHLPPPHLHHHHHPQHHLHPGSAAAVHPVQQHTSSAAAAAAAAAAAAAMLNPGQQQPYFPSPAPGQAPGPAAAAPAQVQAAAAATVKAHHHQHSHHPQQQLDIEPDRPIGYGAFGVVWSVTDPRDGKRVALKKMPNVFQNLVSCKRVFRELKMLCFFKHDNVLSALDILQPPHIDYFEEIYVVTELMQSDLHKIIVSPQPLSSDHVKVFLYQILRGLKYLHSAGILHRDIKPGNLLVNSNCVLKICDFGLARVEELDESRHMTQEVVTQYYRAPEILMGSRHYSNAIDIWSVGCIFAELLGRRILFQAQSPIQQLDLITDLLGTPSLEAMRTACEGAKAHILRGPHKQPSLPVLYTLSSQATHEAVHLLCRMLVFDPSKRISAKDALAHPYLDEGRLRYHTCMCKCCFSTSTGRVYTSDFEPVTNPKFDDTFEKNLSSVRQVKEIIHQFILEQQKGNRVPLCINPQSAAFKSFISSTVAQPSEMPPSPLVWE

[36] = target: 3-phosphoinositide-dependent protein kinase 1 (Homo sapiens) (UniProt O15530); conditions: Compound concentration 1.0 uM
[37] = target: Serine/threonine-protein kinase pim-2 (Homo sapiens) (UniProt Q9P1W9); conditions: Compound concentration 1.0 uM
[38] = target: Protein kinase C eta type (Homo sapiens) (UniProt P24723); conditions: Compound concentration 1.0 uM
[39] = target: Proto-oncogene tyrosine-protein kinase ROS (Homo sapiens) (UniProt P08922); conditions: Compound concentration 1.0 uM
[40] = target: Serine/threonine-protein kinase 25 (Homo sapiens) (UniProt O00506); conditions: Compound concentration 1.0 uM
[41] = target: Serine/threonine-protein kinase TAO2 (Homo sapiens) (UniProt Q9UL54); conditions: Compound concentration 1.0 uM
[42] = target: Tyrosine-protein kinase receptor TYRO3 (Homo sapiens) (UniProt Q06418); conditions: Compound concentration 1.0 uM
Chain of Tyrosine-protein kinase receptor TYRO3 (Homo sapiens) (Q06418 whole entry): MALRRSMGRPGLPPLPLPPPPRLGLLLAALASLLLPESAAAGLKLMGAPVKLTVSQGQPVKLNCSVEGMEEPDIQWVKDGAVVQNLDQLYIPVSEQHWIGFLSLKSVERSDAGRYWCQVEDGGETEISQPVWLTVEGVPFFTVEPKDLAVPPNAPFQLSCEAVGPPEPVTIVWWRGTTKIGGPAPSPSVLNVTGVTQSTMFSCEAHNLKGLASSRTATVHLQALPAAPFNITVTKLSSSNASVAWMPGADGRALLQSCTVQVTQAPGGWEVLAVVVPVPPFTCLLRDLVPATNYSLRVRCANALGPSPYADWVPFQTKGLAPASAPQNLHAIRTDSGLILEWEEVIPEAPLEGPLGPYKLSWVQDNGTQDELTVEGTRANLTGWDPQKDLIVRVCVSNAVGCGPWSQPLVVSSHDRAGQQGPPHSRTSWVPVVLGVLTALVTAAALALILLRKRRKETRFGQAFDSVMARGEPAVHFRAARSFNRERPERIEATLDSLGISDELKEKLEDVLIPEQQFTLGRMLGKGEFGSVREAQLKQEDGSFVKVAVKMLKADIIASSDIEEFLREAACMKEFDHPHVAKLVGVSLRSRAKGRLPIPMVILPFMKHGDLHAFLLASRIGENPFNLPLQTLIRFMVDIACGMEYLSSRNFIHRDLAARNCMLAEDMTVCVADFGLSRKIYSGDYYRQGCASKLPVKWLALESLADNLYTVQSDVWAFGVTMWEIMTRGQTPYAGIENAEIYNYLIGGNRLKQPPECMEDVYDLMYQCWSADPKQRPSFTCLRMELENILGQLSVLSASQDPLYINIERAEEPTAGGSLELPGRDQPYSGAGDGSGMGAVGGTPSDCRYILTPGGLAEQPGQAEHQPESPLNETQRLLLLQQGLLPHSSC

[43] = Compound concentration 100.0 uM

CCC(F)(F)c1cc(N2CCC(S(C)(=O)=O)CC2)nc2sc(C(N)=O)c(N)c12 [BI-605906]
activity at 10 µM [1]: 68% (not active) | residual activity [2]: 64% | residual activity [3]: 83% | residual activity [4]: 88% | residual activity [5]: 86% | residual activity [6]: 84% | residual activity [7]: 102% | residual activity [8]: 49.7% | residual activity [9]: 19.3% | residual activity [10]: 83.3% | residual activity [11]: 46.4% | inhibition [12]: 3.43% | inhibition [13]: 26.9% | inhibition [14]: 9.22% | inhibition [15]: 36.7% | residual activity ([16]; Compound concentration 10.0 uM): 93% | residual activity [16, 43]: 108% | residual activity ([17]; Compound concentration 10.0 uM): 99% | residual activity [17, 43]: 96% | residual activity [18]: 82% | residual activity [19]: 100% | residual activity (Renin (Homo sapiens)): 100% | residual activity [20]: 108% | residual activity [21]: 97% | residual activity [22]: 92% | residual activity [23]: 90% | residual activity [24]: 90% | residual activity [25]: 108% | residual activity [26]: 96% | residual activity [27]: 99% | residual activity [28]: 97% | residual activity [29]: 100% | residual activity [30]: 91% | residual activity ([31]; Compound concentration 1.0 uM): 93% | residual activity ([31]; Compound concentration 10.0 uM): 63% | residual activity [32]: 99% | residual activity ([33]; Compound concentration 1.0 uM): 100% | residual activity ([33]; Compound concentration 10.0 uM): 90% | residual activity [34]: 97% | residual activity [35]: 93% | residual activity [36]: 82% | residual activity [37]: 99% | residual activity [38]: 100% | residual activity [39]: 94% | residual activity [40]: 100% | residual activity [41]: 101% | residual activity [42]: 94%
